In patent US10141017B2, “Lubricant for magnetic recording medium, and magnetic recording medium” (Dexerials Corporation, priority 2015, dated 2018):
Like-named read-outs stand apart in the source and are kept apart here.

Tests used:
[1] = Solubility to fluorine-based solvent; conditions: 25° C.
Procedure: Various fluorine-based solvents were each added in a manner that a concentration was to be 1% by mass, and the resultant was stirred with maintaining the temperature at 25° C. The solubility was evaluated based on the following evaluation criteria.
• 1: The ionic liquid was dissolved in the fluorine-based solvent, and no precipitation was generated even after leaving the solution to stand. • 2: The ionic liquid was insoluble to the fluorine-based solvent, or was partially dissolved but precipitation was generated when the solution was left to stand. <<Friction Properties>> —Production of Lubricant-Coated Hard Disk—

[2] = Measurement of thermal decomposition temperature (TG-DTA, 5% weight reduction); type: physicochemical
Procedure: As measuring conditions, the heating speed was 10° C./min and the air flow rate was 200 mL/min.

[3] = Comprehensive evaluation (thermal decomposition temperature, friction properties, solubility)
[4] = TG-DTA, heating speed 10° C./min, air flow 200 mL/min

Molecule | Solubility to fluorine-based solvent ([1]; Novec 7100, 1% by mass) | Solubility to fluorine-based solvent ([1]; Novec 7200, 1% by mass) | Solubility to fluorine-based solvent ([1]; Novec 7300, 1% by mass) | Solubility to fluorine-based solvent ([1]; Vertrel XF, 1% by mass) | Thermal decomposition (5% weight reduction) temperature [2, 4] [°C] | Thermal decomposition (5% weight reduction) temperature [2] [°C] | Thermal stability and friction coefficient (in words) [3]
NCCOCC(F)(F)OC(F)(F)C(F)(F)OC(F)(F)C(F)(F)OC(F)(F)C(F)(F)C(F)(F)C(F)(F)F.O=S(=O)(NS(=O)(=O)C(F)(F)C(F)(F)C(F)(F)C(F)(F)F)C(F)(F)C(F)(F)C(F)(F)C(F)(F)F [Ex. 5, PFTEG amine-bis(perfluorobutanesulfonyl)imide salt] | 1 | 1 | 1 | 1 | 291 |  | 
octylamine-PFTEG sulfonic Acid Salt [Comp. Ex. 1, reference compound] |  |  |  |  | 276 |  | 
NCCC(F)(F)C(F)(F)C(F)(F)C(F)(F)C(F)(F)C(F)(F)C(F)(F)C(F)(F)F.O=S(=O)(O)CCCOCC(F)(F)OC(F)(F)C(F)(F)OC(F)(F)C(F)(F)OC(F)(F)C(F)(F)C(F)(F)C(F)(F)F [Ex. 2, 1H,1H,2H,2H-perfluorodecylamine-PFTEG sulfonic acid salt] |  |  |  |  |  | 254 | 
NCCOCC(F)(F)OC(F)(F)C(F)(F)OC(F)(F)C(F)(F)OC(F)(F)C(F)(F)C(F)(F)C(F)(F)F.O=S(=O)(O)CCCOCC(F)(F)OC(F)(F)C(F)(F)OC(F)(F)C(F)(F)OC(F)(F)C(F)(F)C(F)(F)C(F)(F)F [Ex. 1, PFTEG amine-PFTEG sulfonic acid salt] | 1 | 1 | 1 | 1 | 246 |  | 
NCCOCC(F)(F)OC(F)(F)C(F)(F)OC(F)(F)C(F)(F)OC(F)(F)C(F)(F)C(F)(F)C(F)(F)F.O=S(=O)(O)C(F)(F)C(F)(F)C(F)(F)C(F)(F)F [Ex. 3, PFTEG amine-perfluorobutane sulfonic acid salt] | 1 | 1 | 1 | 1 | 302 |  | more excellent
NCCC(F)(F)C(F)(F)C(F)(F)C(F)(F)C(F)(F)C(F)(F)C(F)(F)C(F)(F)F.O=S(=O)(O)C(F)(F)C(F)(F)C(F)(F)C(F)(F)F [compound 2, 1H,1H,2H,2H-perfluorodecylamine-perfluorobutane sulfonic acid salt, reference compound] | 2 | 2 | 2 | 2 | 308 |  | 
NCCC(F)(F)C(F)(F)C(F)(F)C(F)(F)C(F)(F)C(F)(F)C(F)(F)C(F)(F)F.O=C(O)C(F)(F)OC(F)(F)C(F)(F)OC(F)(F)C(F)(F)OC(F)(F)C(F)(F)C(F)(F)C(F)(F)F [Ex. 4, 1H,1H,2H,2H-perfluorodecylamine-perfluoro-3,6,9-trioxatridecanoic acid salt] | 1 | 1 | 1 | 1 | 169 |  | 
octadecylamine-perfluoroheptanoic Acid Salt [compound 3, reference compound] | 2 | 2 | 2 | 2 | 204 |  | 
